# Source: PMC2904454 (Cancer Chemotherapy and Pharmacology, 2009)
# Like-named read-outs stand apart in the source and are kept apart here.
# Legend:
# [1] = Plasma pharmacokinetics of sunitinib, SU12662 and total drug; type: in vivo, human; conditions: for Mean trough plasma concentration: day 14 of cycle 1, Schedule 2/1
# [2] = tested on: patients with advanced solid tumors; type: in vivo, human; conditions: for MTD of docetaxel in combination with sunitinib: IV q21d; for MTD of sunitinib in combination with docetaxel: with docetaxel q21d
# [3] = Plasma pharmacokinetics of docetaxel; type: in vivo, human; conditions: for half-life / AUC(0-inf) / Cmax / Tmax: plasma, intravenous; for Tmax: median (range)
# breast cancer and NSCLC = conditions: cited from earlier work
# NSCLC = conditions: ESCAPE, with carboplatin and paclitaxel in NSCLC; cited from earlier work
# [4] = tested on: patients with advanced solid tumors; experiment: Safety: adverse events graded by NCI CTCAE v3.0, ECG/MUGA, patient disposition; type: in vivo, human; conditions: with docetaxel
# [5] = Schedule 2/1 dose level 3b (MTD), n = 10
# [6] = Schedule 2/1 dose level 3b (MTD), n = 10, docetaxel + sunitinib (day 1 of cycle 2)
# [7] = Schedule 2/1 dose level 3b (MTD), n = 10, sunitinib alone (day 3 of cycle 1)
# [8] = Schedule 4/2 dose level 0, n = 3
# [9] = Schedule 4/2 dose level 0, n = 3, docetaxel + sunitinib (day 22)
# [10] = Schedule 4/2 dose level 0, n = 3, sunitinib alone (day 18)
# [11] = Schedule 4/2 dose level 1, n = 5
# [12] = Schedule 4/2 dose level 1, n = 5, docetaxel + sunitinib (day 22)
# [13] = Schedule 4/2 dose level 1, n = 5, sunitinib alone (day 18)
# [14] = Schedule 2/1 dose level 3b, n = 8
# [15] = Schedule 2/1 MTD only, dose level 3b (n = 23)
# [16] = Schedule 2/1 dose levels 0–3b, all patients (N = 40)
# [17] = Schedule 4/2 dose levels 0–1 (N = 10)
compound,measurement,setting,value
CCNCCNC(=O)c1c(C)[nH]c(/C=C2\C(=O)Nc3ccc(F)cc32)c1C [SU12662],AUC0–24 geometric mean ratio (combination/drug alone),[1]; [5],0.99
same,C max geometric mean ratio (combination/drug alone),[1]; [5],1.16
same,"AUC0–24, mean (SD)",[1]; [6],62.7 (32.4) ng*h/mL
same,"C max, mean (SD)",[1]; [6],4.1 (1.9) ng/mL
same,"T max, median (range)",[1]; [6],"7.0 (2.0, 24.0) h"
same,"C max, mean (SD)",[1]; [7],3.4 (1.3) ng/mL
same,"T max, median (range)",[1]; [7],"5.0 (4.0, 24.0) h"
same,"AUC0–24, mean (SD)","[1]; Schedule 2/1 dose level 3b (MTD: sunitinib 37.5 mg + docetaxel 75 mg/m^2 q21d), n = 10, sunitinib alone (day 3 of cycle 1)",58.0 (22.3) ng*h/mL
same,"AUC0–24, mean (SD)","[1]; Schedule 4/2 dose level 0 (sunitinib 25 mg, docetaxel 60 mg/m^2), n = 3, sunitinib alone (day 18)",294.0 (195.0) ng*h/mL
same,AUC0–24 geometric mean ratio (combination/drug alone),[1]; [8],1.10
same,C max geometric mean ratio (combination/drug alone),[1]; [8],1.14
same,"AUC0–24, mean (SD)",[1]; [9],299.9 (132.7) ng*h/mL
same,"C max, mean (SD)",[1]; [9],14.4 (7.2) ng/mL
same,"T max, median (range)",[1]; [9],"4.0 (2.0, 4.0) h"
same,"C max, mean (SD)",[1]; [10],13.3 (8.3) ng/mL
same,"T max, median (range)",[1]; [10],"4.0 (4.0, 12.0) h"
same,"AUC0–24, mean (SD)","[1]; Schedule 4/2 dose level 1 (sunitinib 37.5 mg, docetaxel 60 mg/m^2), n = 5, sunitinib alone (day 18)",341.9 (110.9) ng*h/mL
same,AUC0–24 geometric mean ratio (combination/drug alone),[1]; [11],1.06
same,C max geometric mean ratio (combination/drug alone),[1]; [11],1.05
same,"AUC0–24, mean (SD)",[1]; [12],366.8 (137.5) ng*h/mL
same,"C max, mean (SD)",[1]; [12],17.7 (7.2) ng/mL
same,"T max, median (range)",[1]; [12],"4.0 (1.0, 12.0) h"
same,"C max, mean (SD)",[1]; [13],16.3 (4.6) ng/mL
same,"T max, median (range)",[1]; [13],"6.0 (2.0, 12.0) h"
same,Mean trough plasma concentration,[1],16.4 ng/mL
"CC(=O)O[C@@]12CO[C@@H]1C[C@H](O)[C@@]1(C)C(=O)[C@H](O)C3=C(C)[C@@H](OC(=O)[C@H](O)[C@@H](NC(=O)OC(C)(C)C)c4ccccc4)C[C@@](O)([C@@H](OC(=O)c4ccccc4)[C@H]21)C3(C)C [docetaxel, Docetaxel]",MTD of docetaxel in combination with sunitinib,[2]; with sunitinib on Schedule 2/1,75 mg/m^2
same,MTD of docetaxel in combination with sunitinib,[2]; with sunitinib on Schedule 4/2,60 mg/m^2
same,AUCinf geometric mean ratio (combination/drug alone),[3]; [14],1.12
same,AUClast geometric mean ratio (combination/drug alone),[3]; [14],1.16
same,C max geometric mean ratio (combination/drug alone),[3]; [14],1.24
same,AUCinf geometric mean ratio (combination/drug alone),[3]; [11],1.43
same,AUClast geometric mean ratio (combination/drug alone),[3]; [11],1.47
same,C max geometric mean ratio (combination/drug alone),[3]; [11],1.46
same,"AUClast, mean (SD)","[3]; human, in vivo","2,712.5 (731.9) ng*h/mL"
same,AUC(0-t),"[3]; human, in vivo, AUClast, mean (SD)",2290 ng·h/mL
same,half-life,"[3]; human, 60 mg/m^2",19.6 h
same,AUC(0-inf),"[3]; human, 60 mg/m^2, AUCinf, mean (SD), Schedule 4/2 dose level 1, n = 5, drug alone (day 1 of cycle 1)",2550 ng·h/mL
same,half-life,"[3]; human, 75 mg/m^2",15.7 h
same,AUC(0-inf),"[3]; human, 75 mg/m^2, AUCinf, mean (SD), Schedule 2/1 dose level 3b, n = 8, drug alone (day 1 of cycle 1)",2960 ng·h/mL
same,Cmax,"[3]; human, 75 mg/m^2, C max, mean (SD), Schedule 2/1 dose level 3b, n = 8, drug alone (day 1 of cycle 1)",2580 ng/mL
same,Tmax,"[3]; human, 75 mg/m^2, T max, Schedule 2/1 dose level 3b, n = 8, drug alone (day 1 of cycle 1)",0.6 h
same,AUC(0-inf),"[3]; human, AUCinf, mean (SD), Schedule 4/2 dose level 1, n = 5, docetaxel + sunitinib (day 22 of cycle 1)",3690 ng·h/mL
same,Cmax,"[3]; human, C max, mean (SD), Schedule 2/1 dose level 3b, n = 8, docetaxel + sunitinib (day 1 of cycle 2)",3180 ng/mL
same,Cmax,"[3]; human, C max, mean (SD), Schedule 4/2 dose level 1, n = 5, docetaxel + sunitinib (day 22 of cycle 1)",3100 ng/mL
same,Tmax,"[3]; human, T max, Schedule 2/1 dose level 3b, n = 8, docetaxel + sunitinib (day 1 of cycle 2)",0.8 h
same,"Grade 3/4 neutropenia, patients","breast cancer and NSCLC; docetaxel monotherapy, phase III trials of breast cancer and NSCLC",54–84%
same,Use of granulocytic growth factor support,breast cancer and NSCLC; single-agent docetaxel,17.9%
CNC(=O)c1cc(Oc2ccc(NC(=O)Nc3ccc(Cl)c(C(F)(F)F)c3)cc2)ccn1 [sorafenib],Febrile neutropenia rate,NSCLC,5%
same,Grade 3/4 thrombocytopenia rate,NSCLC,14%
"CCN(CC)CCNC(=O)c1c(C)[nH]c(/C=C2\C(=O)Nc3ccc(F)cc32)c1C [sunitinib, Sunitinib malate]",MTD of sunitinib in combination with docetaxel,"[2]; Schedule 2/1, oral",37.5 mg/day
same,MTD of sunitinib in combination with docetaxel,"[2]; Schedule 4/2, oral",25 mg/day
same,Dose reduction for sunitinib,[4]; [15],4 (17) n (%)
same,"Treatment interruption for sunitinib, adverse event",[4]; [15],9 (39) n (%)
same,Dose reduction for sunitinib,[4]; [16],5 (13) n (%)
same,"Treatment interruption for sunitinib, adverse event",[4]; [16],11 (28) n (%)
same,Dose reduction for sunitinib,[4]; [17],1 (10) n (%)
same,"Treatment interruption for sunitinib, adverse event",[4]; [17],3 (30) n (%)
same,Mean trough plasma concentration,[1],43.8 ng/mL
same,AUC(0-t),"[1]; human, in vivo",297 ng·h/mL
same,AUC(0-t),"[1]; human, in vivo, AUC0–24, mean (SD)",1170 ng·h/mL
same,AUC(0-t),"[1]; human, plasma, oral, 25 mg, AUC0–24, mean (SD), Schedule 4/2 dose level 0 (sunitinib 25 mg, docetaxel 60 mg/m^2), n = 3, sunitinib alone (day 18)",721 ng·h/mL
same,Tmax,"[1]; human, plasma, oral, 37.5 mg",8 h
same,AUC(0-t),"[1]; human, plasma, oral, AUC0–24, mean (SD), Schedule 4/2 dose level 0, n = 3, docetaxel + sunitinib (day 22)",548 ng·h/mL
same,AUC(0-t),"[1]; human, plasma, oral, AUC0–24, mean (SD), Schedule 4/2 dose level 1, n = 5, docetaxel + sunitinib (day 22)",1020 ng·h/mL
